Measured values reported in ChEMBL document CHEMBL3991601, “The target landscape of clinical kinase drugs” (Science, 2017).
Structures can show the parent of a compound that is named as a salt. Active and inactive are the calls of the source. Cut-off read from the data, not from the text of the source, for most assays here: actives have a measured Kd and inactives only a lower limit.

How the values were obtained:
[1] = target: T1, Tyrosine--tRNA ligase, cytoplasmic (Homo sapiens, UniProt P54577)
T1 sequence (P54577 whole entry): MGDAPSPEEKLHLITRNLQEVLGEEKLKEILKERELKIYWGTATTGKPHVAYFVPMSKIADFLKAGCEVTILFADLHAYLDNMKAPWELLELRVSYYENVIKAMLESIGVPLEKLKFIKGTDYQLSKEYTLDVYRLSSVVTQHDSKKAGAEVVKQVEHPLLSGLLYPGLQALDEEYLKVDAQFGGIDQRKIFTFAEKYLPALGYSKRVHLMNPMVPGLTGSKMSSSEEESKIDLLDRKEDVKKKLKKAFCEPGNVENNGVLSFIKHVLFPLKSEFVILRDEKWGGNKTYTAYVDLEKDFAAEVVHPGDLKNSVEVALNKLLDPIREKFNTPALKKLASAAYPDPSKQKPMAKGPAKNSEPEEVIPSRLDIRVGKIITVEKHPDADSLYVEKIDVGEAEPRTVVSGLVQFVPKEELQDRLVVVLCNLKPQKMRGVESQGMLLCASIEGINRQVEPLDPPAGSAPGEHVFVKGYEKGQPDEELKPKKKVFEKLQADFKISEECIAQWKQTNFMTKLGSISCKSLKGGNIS

[2] = target: Cyclin-dependent kinase 6 (Homo sapiens, UniProt Q00534)
Cyclin-dependent kinase 6, sequence (Q00534 whole entry): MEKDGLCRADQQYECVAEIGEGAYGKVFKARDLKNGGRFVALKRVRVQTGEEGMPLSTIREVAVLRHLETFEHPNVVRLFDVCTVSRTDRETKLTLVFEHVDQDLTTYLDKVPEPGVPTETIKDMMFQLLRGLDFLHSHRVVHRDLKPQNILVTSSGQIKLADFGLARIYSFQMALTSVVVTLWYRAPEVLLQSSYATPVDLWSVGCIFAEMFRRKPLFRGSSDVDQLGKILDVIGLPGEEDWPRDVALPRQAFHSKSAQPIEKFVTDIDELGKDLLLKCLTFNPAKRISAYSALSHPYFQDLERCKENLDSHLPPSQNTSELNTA

[3] = target: T2, Serine/threonine-protein kinase PLK4 (Homo sapiens, UniProt O00444)
T2 sequence (O00444 whole entry): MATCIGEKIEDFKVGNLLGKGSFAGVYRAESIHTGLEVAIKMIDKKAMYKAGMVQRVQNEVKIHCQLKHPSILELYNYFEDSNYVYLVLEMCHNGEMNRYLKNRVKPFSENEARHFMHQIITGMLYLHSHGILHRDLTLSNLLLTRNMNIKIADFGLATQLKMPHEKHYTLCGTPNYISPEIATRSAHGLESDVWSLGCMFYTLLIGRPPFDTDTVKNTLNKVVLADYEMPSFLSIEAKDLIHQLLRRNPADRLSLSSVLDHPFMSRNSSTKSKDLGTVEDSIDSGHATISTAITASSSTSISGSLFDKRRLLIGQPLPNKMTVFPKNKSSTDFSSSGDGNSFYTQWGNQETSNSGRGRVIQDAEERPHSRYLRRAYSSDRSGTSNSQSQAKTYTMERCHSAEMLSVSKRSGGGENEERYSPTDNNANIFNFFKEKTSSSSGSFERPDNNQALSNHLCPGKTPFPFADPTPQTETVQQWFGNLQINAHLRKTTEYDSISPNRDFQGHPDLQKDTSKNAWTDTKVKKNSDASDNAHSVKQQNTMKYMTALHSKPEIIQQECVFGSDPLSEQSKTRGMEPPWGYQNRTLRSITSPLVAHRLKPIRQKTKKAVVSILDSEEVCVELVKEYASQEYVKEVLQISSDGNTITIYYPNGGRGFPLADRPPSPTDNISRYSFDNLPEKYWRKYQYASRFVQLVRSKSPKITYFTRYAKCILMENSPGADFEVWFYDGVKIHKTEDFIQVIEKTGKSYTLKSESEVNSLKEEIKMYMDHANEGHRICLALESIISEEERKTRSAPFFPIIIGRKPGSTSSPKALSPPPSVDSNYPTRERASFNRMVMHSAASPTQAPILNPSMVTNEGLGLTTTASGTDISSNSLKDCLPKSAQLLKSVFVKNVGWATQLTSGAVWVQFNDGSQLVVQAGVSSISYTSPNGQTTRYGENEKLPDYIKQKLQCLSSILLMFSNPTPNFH

[4] = target: Serine/threonine-protein kinase N2 (Homo sapiens, UniProt Q16513)
Serine/threonine-protein kinase N2, sequence (Q16513 whole entry): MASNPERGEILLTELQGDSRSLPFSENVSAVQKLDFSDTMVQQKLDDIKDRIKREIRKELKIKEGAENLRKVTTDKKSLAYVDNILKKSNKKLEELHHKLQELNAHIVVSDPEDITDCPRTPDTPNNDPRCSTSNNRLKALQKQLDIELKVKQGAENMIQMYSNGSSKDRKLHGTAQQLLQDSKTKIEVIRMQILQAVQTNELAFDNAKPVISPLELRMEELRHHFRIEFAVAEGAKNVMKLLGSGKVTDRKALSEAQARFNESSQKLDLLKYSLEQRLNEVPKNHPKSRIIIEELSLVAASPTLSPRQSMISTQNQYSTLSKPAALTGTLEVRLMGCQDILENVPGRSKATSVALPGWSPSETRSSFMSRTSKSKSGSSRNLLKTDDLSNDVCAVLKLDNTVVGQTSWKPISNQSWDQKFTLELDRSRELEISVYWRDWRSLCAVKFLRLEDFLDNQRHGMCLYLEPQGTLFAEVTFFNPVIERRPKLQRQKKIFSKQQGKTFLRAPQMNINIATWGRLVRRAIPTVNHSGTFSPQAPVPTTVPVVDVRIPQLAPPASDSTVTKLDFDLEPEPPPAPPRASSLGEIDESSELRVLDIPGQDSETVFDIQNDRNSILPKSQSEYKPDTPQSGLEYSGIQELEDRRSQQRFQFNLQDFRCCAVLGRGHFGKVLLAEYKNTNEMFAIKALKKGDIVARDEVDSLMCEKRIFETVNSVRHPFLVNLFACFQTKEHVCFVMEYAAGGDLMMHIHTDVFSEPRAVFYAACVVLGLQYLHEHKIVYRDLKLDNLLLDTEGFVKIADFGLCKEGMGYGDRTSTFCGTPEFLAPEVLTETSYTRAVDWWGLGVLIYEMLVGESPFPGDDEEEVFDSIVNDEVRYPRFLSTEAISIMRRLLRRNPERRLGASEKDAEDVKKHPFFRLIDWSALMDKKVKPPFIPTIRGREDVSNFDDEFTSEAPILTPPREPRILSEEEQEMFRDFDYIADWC

ADP/ATP translocase 3 = target: T3, ADP/ATP translocase 3 (Homo sapiens, UniProt P12236)
T3 sequence (P12236 whole entry): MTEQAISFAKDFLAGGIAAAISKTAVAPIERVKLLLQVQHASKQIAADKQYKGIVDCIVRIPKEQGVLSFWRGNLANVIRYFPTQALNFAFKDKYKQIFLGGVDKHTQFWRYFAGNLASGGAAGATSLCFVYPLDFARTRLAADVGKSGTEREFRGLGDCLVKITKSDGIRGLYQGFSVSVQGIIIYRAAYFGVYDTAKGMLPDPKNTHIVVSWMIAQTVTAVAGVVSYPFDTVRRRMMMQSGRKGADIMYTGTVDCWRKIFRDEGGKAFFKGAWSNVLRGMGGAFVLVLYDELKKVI

[5] = target: T4, Mitogen-activated protein kinase kinase kinase 2 (Homo sapiens, UniProt Q9Y2U5)
T4 sequence (Q9Y2U5 whole entry): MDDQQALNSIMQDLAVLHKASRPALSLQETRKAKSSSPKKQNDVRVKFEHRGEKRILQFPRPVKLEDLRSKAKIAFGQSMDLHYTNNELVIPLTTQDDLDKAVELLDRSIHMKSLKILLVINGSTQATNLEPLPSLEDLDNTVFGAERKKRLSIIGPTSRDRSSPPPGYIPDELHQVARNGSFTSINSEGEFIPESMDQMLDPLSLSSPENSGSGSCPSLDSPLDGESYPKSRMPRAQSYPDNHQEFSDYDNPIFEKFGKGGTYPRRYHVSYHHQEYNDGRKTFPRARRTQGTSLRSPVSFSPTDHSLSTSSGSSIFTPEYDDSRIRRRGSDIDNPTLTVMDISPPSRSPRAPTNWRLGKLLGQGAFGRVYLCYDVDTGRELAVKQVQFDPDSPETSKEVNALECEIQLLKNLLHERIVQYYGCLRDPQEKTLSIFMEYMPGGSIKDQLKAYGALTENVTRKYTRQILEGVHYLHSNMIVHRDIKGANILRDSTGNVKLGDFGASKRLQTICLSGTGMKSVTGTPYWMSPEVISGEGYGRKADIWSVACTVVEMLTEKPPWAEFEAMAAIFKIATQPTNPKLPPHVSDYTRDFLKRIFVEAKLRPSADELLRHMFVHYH

[6] = target: Casein kinase I isoform gamma-1 (Homo sapiens, UniProt Q9HCP0)
Casein kinase I isoform gamma-1, sequence (Q9HCP0 whole entry, canonical isoform): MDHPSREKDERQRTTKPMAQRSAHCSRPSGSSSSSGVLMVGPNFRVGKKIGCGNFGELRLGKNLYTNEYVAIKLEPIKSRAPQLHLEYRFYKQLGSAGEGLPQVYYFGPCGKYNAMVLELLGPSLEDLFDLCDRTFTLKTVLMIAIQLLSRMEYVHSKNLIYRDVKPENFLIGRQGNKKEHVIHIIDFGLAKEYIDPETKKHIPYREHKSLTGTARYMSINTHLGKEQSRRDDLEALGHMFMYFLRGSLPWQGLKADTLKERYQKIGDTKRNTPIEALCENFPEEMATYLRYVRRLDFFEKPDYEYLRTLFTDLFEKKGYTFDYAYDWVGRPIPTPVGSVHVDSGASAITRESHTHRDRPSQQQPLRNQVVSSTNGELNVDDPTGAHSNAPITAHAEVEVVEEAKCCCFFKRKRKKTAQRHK
Note: in the data inactive means no Kd found up to 30 µM.

Row | SMILES | Kd [1] | Kd [2] | Kd [3] | Kd [4] | Kd (ADP/ATP translocase 3) | Kd [5] | Kd [6]
1 | C[C@@H](Oc1cc(C(=O)Nc2ccc(C(=O)N3CCN(C)CC3)cc2)nnc1N)c1c(Cl)ccc(F)c1Cl | > 30 µM (inactive) | > 30 µM (inactive) | > 30 µM (inactive) | > 30 µM (inactive) | > 30 µM (inactive) | > 30 µM (inactive) | > 30 µM (inactive)
2 | C[C@H]1CNCCCN1S(=O)(=O)c1cccc2cncc(F)c12 |  | > 30 µM (inactive) | 8.14 µM (active) | 0.285 µM (active) | > 30 µM (inactive) | > 30 µM (inactive) | > 30 µM (inactive)
3 | CC(=O)c1cnc2ccc(-c3cc(Cl)c(O)c(Cl)c3)nc2c1N[C@H]1CC[C@H](CN(C)C)CC1 | > 30 µM (inactive) | > 30 µM (inactive) |  | > 30 µM (inactive) | > 30 µM (inactive) |  | 0.665 µM
4 | CCNC(=O)C#Cc1ccc2c(c1)NC(=O)/C2=C(\Nc1ccc(CN(C)C)cc1)c1ccccc1 | > 30 µM (inactive) | 2.97 µM (active) | 0.333 µM (active) | > 30 µM (inactive) | > 30 µM (inactive) | > 30 µM (inactive) | > 30 µM (inactive)
5 | C=CC(=O)N1CCC[C@H](n2c(=O)n(-c3ccc(Oc4ccccc4)cc3)c3c(N)ncnc32)C1 | > 30 µM (inactive) | > 30 µM (inactive) | > 30 µM (inactive) | > 30 µM (inactive) | > 30 µM (inactive) | > 30 µM (inactive) | > 30 µM (inactive)
6 | Cc1nc2cc(-c3nn(C(C)C)c4ncnc(N)c34)ccc2o1 | > 30 µM (inactive) | > 30 µM (inactive) | > 30 µM (inactive) | > 30 µM (inactive) | > 30 µM (inactive) | > 30 µM (inactive) | > 30 µM (inactive)
7 | COCc1c(-c2ccc(NC(=O)Nc3cc(C(F)(F)F)ccc3F)c(F)c2)c2c(N)ncnn2c1CN1CCOCC1 | > 30 µM (inactive) | > 30 µM (inactive) | > 30 µM (inactive) | > 30 µM (inactive) | > 30 µM (inactive) | > 30 µM (inactive) | > 30 µM (inactive)
8 | COc1cc(Nc2ncc3c(n2)-c2ccc(Cl)cc2C(c2c(F)cccc2OC)=NC3)ccc1C(=O)O [ALISERTIB] | > 30 µM (inactive) | > 30 µM (inactive) |  |  | > 30 µM (inactive) | > 30 µM (inactive) | 
9 | Cc1nc(NC(=O)N2CCC[C@H]2C(N)=O)sc1-c1ccnc(C(C)(C)C(F)(F)F)c1 [ALPELISIB] | > 30 µM (inactive) | > 30 µM (inactive) | > 30 µM (inactive) | > 30 µM (inactive) | > 30 µM (inactive) | > 30 µM (inactive) | > 30 µM (inactive)
10 | CNC(=O)c1ccccc1Sc1ccc2c(/C=C/c3ccccn3)n[nH]c2c1 [AXITINIB] | > 30 µM (inactive) | > 30 µM (inactive) |  |  | > 30 µM (inactive) |  | 
11 | CCS(=O)(=O)N1CCN(c2ccc(Nc3ncc(C(N)=O)c(NC4CC4)n3)cc2)CC1 [Cerdulatinib Hydrochloride] |  | > 30 µM (inactive) | > 30 µM (inactive) | > 30 µM (inactive) | > 30 µM (inactive) | 0.747 µM (active) | > 30 µM (inactive)
12 | CC(C)(C)c1nc(-c2cccc(NS(=O)(=O)c3c(F)cccc3F)c2F)c(-c2ccnc(N)n2)s1 [DABRAFENIB] | > 30 µM (inactive) | 0.318 µM (active) | 0.52 µM (active) | > 30 µM (inactive) | > 30 µM (inactive) | > 30 µM (inactive) | 
13 | Cn1cc(C2=C(c3cn(C4CCN(Cc5ccccn5)CC4)c4ccccc34)C(=O)NC2=O)c2ccccc21 [ENZASTAURIN] | > 30 µM (inactive) | > 30 µM (inactive) |  |  | > 30 µM (inactive) |  | 
14 | Cc1[nH]c(/C=C2\C(=O)Nc3ccccc32)c(C)c1CCC(=O)O [ORANTINIB] | > 30 µM (inactive) | > 30 µM (inactive) |  |  | > 30 µM (inactive) | > 30 µM (inactive) | 
15 | N#CC[C@H](C1CCCC1)n1cc(-c2ncnc3[nH]ccc23)cn1 [RUXOLITINIB] | > 30 µM (inactive) | > 30 µM (inactive) |  |  | > 30 µM (inactive) |  | 

Results, then the compound that gave them:

Row | Kd [1] | Kd [2] | Kd [3] | Kd [4] | Kd (ADP/ATP translocase 3) | Kd [5] | Kd [6] | SMILES
16 | > 30 µM (inactive) | > 30 µM (inactive) | > 30 µM (inactive) | > 30 µM (inactive) | > 30 µM (inactive) | > 30 µM (inactive) | > 30 µM (inactive) | Nc1ncnc2c1c(-c1cccc(OCc3ccccc3)c1)cn2[C@H]1C[C@@H](CN2CCC2)C1 [AEW-541]
17 | > 30 µM (inactive) | > 30 µM (inactive) | > 30 µM (inactive) | > 30 µM (inactive) | > 30 µM (inactive) | 1.97 µM (active) | > 30 µM (inactive) | Cc1csc(-c2nnc(Nc3ccc(Oc4ncccc4-c4ccnc(N)n4)cc3)c3ccccc23)c1 [AMG-900]
18 | > 30 µM (inactive) |  | 0.021 µM (active) | 2.77 µM (active) | > 30 µM (inactive) | 0.277 µM (active) | > 30 µM (inactive) | O=C(Nc1c[nH]nc1-c1nc2cc(CN3CCOCC3)ccc2[nH]1)NC1CC1 [AT-9283]
19 | > 30 µM (inactive) | > 30 µM (inactive) |  |  | > 30 µM (inactive) |  |  | C[C@@H](Oc1cc(-n2cnc3ccc(CN4CCN(C)CC4)cc32)sc1C(N)=O)c1ccccc1C(F)(F)F [GSK-461364]
20 | > 30 µM (inactive) | > 30 µM (inactive) |  | > 30 µM (inactive) | > 30 µM (inactive) | > 30 µM (inactive) | > 30 µM (inactive) | CCn1cc(-c2ccnc3[nH]c(-c4cccc(CN(C)C)c4)cc23)c(-c2ccc(NC(=O)N(C)C)cc2)n1 [GSK-1070916]
21 | > 30 µM (inactive) | > 30 µM (inactive) |  |  | > 30 µM (inactive) |  |  | NC(=O)c1c(OCc2c(F)cc(Br)cc2F)nsc1NC(=O)NCCCCN1CCCC1 [OSI-632]
22 | > 30 µM (inactive) | 2.08 µM (active) |  |  | > 30 µM (inactive) | 0.164 µM (active) |  | CC(=O)NCC(=O)N1[C@@H]2CC[C@H]1c1ccc(Nc3ncc(C(F)(F)F)c(NC4CCC4)n3)cc12 [PF-03814735]
23 | > 30 µM (inactive) | > 30 µM (inactive) |  |  | > 30 µM (inactive) |  |  | O=C(NOCCO)c1cc(CN2OCCCC2=O)c(F)c(F)c1Nc1ccc(I)cc1F [RO-4987655]
